Measured values: patent US20250114331A1, “CONCURRENT TARGETING OF ONCOGENIC PATHWAYS TO ENHANCE CHEMOTHERAPY AND IMMUNOTHERAPY” (THE JOHNS HOPKINS UNIVERSITY, priority 2021, published 2025)

Legend:
[1] = test system: MB49, UPPL595 and BBN975; assay: FABP4 expression and lipid droplet quantification after VP, mouse UCB cell lines; type: cell-based
Method: RNA extraction and quantitative reverse transcriptase polymerase chain reaction (Q-RT-PCR). Total RNA from cell lines was isolated using the RNeasy Plus Mini Kit (Qiagen, Germantown, USA), according to the manufacturer's protocol. This total RNA was converted to cDNA using the SuperScript III First-Strand Synthesis System (Life technologies, Carlsbad, USA), which was then used as a template for qRT-PCR. qRT-PCR was performed using the Fast SYBR Green Master Mix (Thermo Fisher Scientific, Waltham, USA) on a Quant studio 6 Fast Real-Time PCR System (Life technologies) in triplicate. SDS software (Applied Biosystems) was used to determine cycle threshold (Ct) values. The expression levels were quantified relative to β-actin using the 2-ΔΔCt method. YAP1 influences the accumulation of lipid droplets in cancer cells. […] Therefore, apart from investigating the altered regulation of intracellular signaling cascades, the present inventors also studied cellular metabolism in response to YAP1 modulation. […] It was reported that FABP4 is a critical molecule in accumulation of lipid droplets in the intracellular compartments (45). […] As increased amount of L-lactate correlated with more glycolysis and poor prognosis of cancer (46), the present inventors quantified L-lactate in mouse and human UCB cells with YAP1 modulation.

[2] = test system: colorectal cancer cells; details: in mice and in cells cultured under hypoxic and nutrient-deprived conditions; cited from earlier work
[3] = test system: H1299 xenografts; assay: H1299 xenograft treatment; type: in vivo, NSG mice; details: verteporfin 50 mg/kg i.p. three times a week; S3I-201 5 mg/kg i.p. every day
Text: For therapeutic experiments, 4- to 5-week-old NOD/SCID/IL2Ry−/− (NSG) mice were obtained from the Johns Hopkins Medical Institute's (Baltimore, MD) animal care facility. We injected H1299 cells (1×106) and H1437 cells (1×106), which were suspended in the mixture as described above, subcutaneously into both flanks. For the patient-derived xenograft (PDX) models, 13 PDX blocks (CTG0162, 0178, 0502, 0848, 1309, 1351, 1358, 1361, 1762, 1885, 2017, 2481, and 2708) were obtained from Champion Oncology. All these PDXs were established from primary lung adenocarcinoma tumors. The tumor tissues were cut into 4×2 mm pieces and implanted in the subcutaneous spaces of both flanks. When tumor volumes reached to 200+50 mm3, mice were randomly assigned to six experimental groups [control, chemo (cisplatin+gemcitabine), chemo+verteporfin, chemo+S3I-201, “all” (cisplatin+gemcitabine+verteporfin+S3I-201), and verteporfin+S3I-201] at 5 mice per group. Cisplatin (Sigma-Aldrich; #P4394), gemcitabine (Medkoo; #100410), S3I-201 (MedKoo; #202541), and verteporfin (Sigma-Aldrich; #1711461) were used to treat the mice. Cisplatin (2.5 mg/kg) and gemcitabine (120 mg/kg) were administrated via intraperitoneal injection once a week (22). […] Each tumor volume was measured every 3 days. Therapeutic efficacy was evaluated from percentage change of the tumor volume compared with the tumor size before treatment.

[4] = used clinically, or in clinical trials; cited from earlier work
[5] = test system: T24, BFTC905 and BFTC909; assay: Lipid droplet quantification after VP, human UCB cell lines; type: cell-based; details: VP treated
Text: YAP1 influences the accumulation of lipid droplets in cancer cells. […] Therefore, apart from investigating the altered regulation of intracellular signaling cascades, the present inventors also studied cellular metabolism in response to YAP1 modulation. […] It was reported that FABP4 is a critical molecule in accumulation of lipid droplets in the intracellular compartments (45). […] It was also observed that when the culture media was supplemented with oleic acid (commonly used as an inducer for lipid droplet formation), there is an increase accumulation of lipid droplets in the YAP1 expressing cells compared to the KD cells (FIG. 29C). […] As increased amount of L-lactate correlated with more glycolysis and poor prognosis of cancer (46), the present inventors quantified L-lactate in mouse and human UCB cells with YAP1 modulation.

[6] = test system: UPPL 595 cells; assay: Wound healing; type: cell-based, mouse; details: VP treated versus control cells
[7] = test system: MB 49, UPPL595 and BBN975; assay: Cell proliferation, sphere formation and RT-qPCR of CSC markers in VP treated mouse UCB cell lines; type: cell-based; details: 1 μM
Method: Cell viability assay. Cell proliferation and viability were evaluated using alamarBlue™ Cell Viability Reagent (ThermoFischer Scientific). For cell proliferation assay, after cells (5×10^3/well) were seeded into 96-well plates with culture media containing 10% FBS, the optical density of each well was measured at desired time interval, following the manufacturers protocol. The absorbance was measured by a Spectra Max 250 Plate Reader (Molecular Devices). Cell viability were calculated as percentage over control. Sphere formation assay. Sphere formation was induced by culturing cells (2×10^4/well) in DMEM/Ham's F12 50/50 Mix (Mediatech) supplemented with B-27 (Life Technologies), 20 ng/mL FGF-basic (Peprotech), 20 ng/mL EGF (Peprotech). Cell culture was performed in ultra-low attachment 6 well plates (Corning, Lowell, USA) for 10 days. The medium was replaced every other day. Sphere formation was evaluated using the inverted phase-contrast microscope. RNA extraction and quantitative reverse transcriptase polymerase chain reaction (Q-RT-PCR). Total RNA from cell lines was isolated using the RNeasy Plus Mini Kit (Qiagen, Germantown, USA), according to the manufacturer's protocol. […] The expression levels were quantified relative to β-actin using the 2−ΔΔCt method.

C=Cc1c(C)c2cc3nc(cc4[nH]c(cc5nc(cc1[nH]2)C(C)=C5CCC(=O)O)c(CCC(=O)OC)c4C)[C@@]1(C)C3=CC=C(C(=O)OC)[C@H]1C(=O)OC [verteporfin, 3-[(23S,24R)-14-ethenyl-5-(3-methoxy-3-oxopropyl)-22,23-bis(methoxycarbonyl)-4,10,15,24-tetramethyl-25,26,27,28-tetraazahexacyclo[16.6.1.13,6.18,11.113,16.019,24]octacosa-1,3,5,7,9,11(27),12,14,16,18(25),19,21-dodecaen-9-yl]propanoic acid]
expression level of FABP4 [1]: significantly downregulated | killing of colorectal cancer cells by protein oligomer accumulation [2]: selectively killed colorectal cancer cells | tumor growth [3]: inhibited growth | adverse effects [4]: few severe adverse effects were reported | accumulation of intracellular lipid droplets [5]: decreases the accumulation of intracellular lipid droplets | wound closure [6]: significant difference in wound closure | cancer stemness (cell proliferation, sphere formation, CSC markers) [7]: inhibit the development of cancer stemness
